# Test results published in ChEMBL document CHEMBL4813957, “Antitubercular properties of thiazolidin-4-ones - A review” (Eur J Med Chem, 2021).
# Legend:
# Type in all cases: functional
# [1] = test system: Mycobacterium tuberculosis; experiment: Antimycobacterial activity against extensively drug resistant Mycobacterium tuberculosis measured up to 2 weeks; details: 336 h, time weeks <=2
# [2] = test system: Mycobacterium tuberculosis; experiment: Antimycobacterial activity against multidrug resistant Mycobacterium tuberculosis measured up to 2 weeks; details: 336 h, time weeks <=2
# [3] = test system: Mycobacterium tuberculosis; experiment: Antimycobacterial activity against ethambutol/pyrazinamide/kanamycin/streptomycin/ofloxacin/moxifloxacin/levofloxacin resistant Mycobacterium tuberculosis measured up to 2 weeks; details: 336 h, time weeks <=2
# [4] = test system: Mycobacterium tuberculosis variant bovis BCG; experiment: Antimycobacterial activity against Mycobacterium bovis BCG ATCC 35734 measured on 12th day by nitrate reductase assay; details: ATCC 35734, 288 h, time 12 day
# [5] = test system: Mycobacterium tuberculosis variant bovis BCG; experiment: Antimycobacterial activity against Mycobacterium bovis BCG ATCC35743 by nitrate reductase assay
SMILES,MIC [4] [µg/mL],also measured
O=C(O)CCCCCC1NC(=O)CS1 (stereo not drawn),,MIC [1]: 0.096 µM; MIC [2]: 0.6 µM; MIC [3]: 0.2 µM
O=C1CSC(c2ccc(OCc3cc4ccccc4n4nnnc34)cc2)N1c1ccc([N+](=O)[O-])cc1 (stereo not drawn),3.8,
CCOc1ccc(N2C(=O)CSC2c2ccc(OCc3cc4ccccc4n4nnnc34)cc2)cc1 (stereo not drawn),7.09,
O=C1CSC(c2ccc(OCc3cc4ccccc4n4nnnc34)cc2)N1c1ccccc1 (stereo not drawn),9.13,
O=C1NC(=S)S/C1=C\c1ccc([N+](=O)[O-])cc1,,IC90 [5]: 25.7 µg/mL
NC(=O)c1cnccn1 [PYRAZINAMIDE],20,
